Target: T1, human CRF1 receptor (Homo sapiens, UniProt P34998)
T1 construct: expressed in transfected cells; host or cells: CHO cells (membrane fraction)
T1 sequence (P34998 24-415): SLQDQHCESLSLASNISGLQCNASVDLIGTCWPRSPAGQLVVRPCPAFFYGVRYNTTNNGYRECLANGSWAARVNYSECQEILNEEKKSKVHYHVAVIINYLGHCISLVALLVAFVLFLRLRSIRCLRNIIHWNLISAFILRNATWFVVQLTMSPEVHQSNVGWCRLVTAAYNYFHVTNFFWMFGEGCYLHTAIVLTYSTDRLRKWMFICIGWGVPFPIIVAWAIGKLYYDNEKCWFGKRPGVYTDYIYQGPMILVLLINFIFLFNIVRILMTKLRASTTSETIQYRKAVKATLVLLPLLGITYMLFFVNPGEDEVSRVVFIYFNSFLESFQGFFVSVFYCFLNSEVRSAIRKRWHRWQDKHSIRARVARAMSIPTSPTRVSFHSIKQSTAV
Assay: Measurement of CRF binding inhibitory rate (125I-CRF receptor binding, CHO cellular membrane fraction)
Details: human CRF1 receptor expressing CHO cellular membrane fraction, 50 pM 125I-CRF; for inhibition at 1 µM: 1.5 h, read-out: Binding inhibitory rates (% inhibition); for inhibition at 1 µM / Binding inhibitory rates (% inhibition): at the presence of 1 μM of a test compound
Protocol: A receptor binding experiment was carried out using a human CRF1 receptor expressing CHO cellular membrane fraction and ovine CRF, [^125I]-tyr^0(^125I-CRF). 1000 nM of a test compound was incubated with 1 μg of human CRF receptor expressing CHO cellular membrane fraction and 50 pM of ^125I-CRF in a binding assay buffer (50 mM Tris-HCl, 5 mM EDTA, 10 mM MgCl2, 0.05% CHAPS, 0.1% BSA, 0.5 mM PMSF, 0.1 μg/mL pepstatin, 20 μg/mL leupeptin, pH 7.5). In addition, for measuring nonspecific binding (NSB), 0.1 μM unlabelled human Urocortin was incubated with 5 μg of human CRF receptor expressing CHO cellular membrane fraction and 50 pM of ^125I-CRF in a binding assay buffer. After a binding reaction was carried out at room temperature for 1.5 hr, the membrane was entrapped on a glass filter (UniFilter plate GF-C/Perkin Elmer) by suction filtration using a cell harvester (Perkin Elmer), and washed with ice-cooled 50 mM Tris-HCl (pH 7.5). After drying the glass filter, a liquid scintillation cocktail (Microscinti 0, Perkin Elmer) was added, and the radioactivity of ^125I-CRF remaining on a glass filter was measured using Topcount (Perkin Elmer).
(TB-SB)/(TB-NSB)×100 (SB: radioactivity when a compound is added, TB: maximum binding radioactivity, NSB: nonspecific binding radioactivity) were calculated to obtain binding inhibitory rates under the range of the presence from 0.05 nM to 10 μM of each compound. The IC50 values were calculated by using GraphPad Prism software.

Compound: CCC(OC(C)=O)c1ccc(Cl)c2nc3n(c12)CCCN3c1ccc(Cl)cc1Cl (racemic) [Example 238, 1-[9-Chloro-1-(2,4-dichlorophenyl)-1,2,3,4-tetrahydropyrimido[1,2-a]benzimidazol-6-yl]propyl acetate]
- inhibition at 1 µM: 98%

Compound: CCC(OC(C)=O)c1ccc(Cl)c2nc3n(c12)CCCN3c1ccc(OC)nc1C (racemic) [Example 265, 1-[9-Chloro-1-(6-methoxy-2-methylpyridin-3-yl)-1,2,3,4-tetrahydropyrimido[1,2-a]benzimidazol-6-yl]propyl acetate]
- inhibition at 1 µM: 89%

Compound: CCC(OC(C)=O)c1ccc(Cl)c2nc3n(c12)CCCN3c1ccc(Cl)cc1Cl (single isomer, unassigned; (+)) [Example 240, (+)-1-[9-Chloro-1-(2,4-dichlorophenyl)-1,2,3,4-tetrahydropyrimido[1,2-a]benzimidazol-6-yl]propyl acetate]
- Binding inhibitory rates (% inhibition): 97%

Compound: CCC(OC(C)=O)c1ccc(Cl)c2nc3n(c12)CCCN3c1ccc(OC)nc1C (single isomer, unassigned; (+)) [Example 267, (+)-1-[9-Chloro-1-(6-methoxy-2-methylpyridin-3-yl)-1,2,3,4-tetrahydropyrimido[1,2-a]benzimidazol-6-yl]propyl acetate]
- Binding inhibitory rates (% inhibition): 96%

Compound: CCC(O)c1ccc(Cl)c2nc3n(c12)CCCN3c1ccc(Cl)cc1Cl (single isomer, unassigned; (+)) [Example 439, (+)-1-[9-Chloro-1-(2,4-dichlorophenyl)-1,2,3,4-tetrahydropyrimido[1,2-a]benzimidazol-6-yl]propan-1-ol]
- Binding inhibitory rates (% inhibition): 84%

Compound: CCC(OC(C)=O)c1ccc(Cl)c2nc3n(c12)CCCN3c1ccc(Cl)cc1Cl (single isomer, unassigned; (-)) [Example 239, (−)-1-[9-Chloro-1-(2,4-dichlorophenyl)-1,2,3,4-tetrahydropyrimido[1,2-a]benzimidazol-6-yl]propyl acetate]
- inhibition at 1 µM: 90%

Compound: CCC(OC(C)=O)c1ccc(Cl)c2nc3n(c12)CCCN3c1ccc(OC)nc1C (single isomer, unassigned; (-)) [Example 266, (−)-1-[9-Chloro-1-(6-methoxy-2-methylpyridin-3-yl)-1,2,3,4-tetrahydropyrimido[1,2-a]benzimidazol-6-yl]propyl acetate]
- inhibition at 1 µM: 82%

Compound: CCC(CC)c1ccc(Cl)c2nc3n(c12)CCCCN3c1cnc(N(C)C)cc1C [Example 25, 5-[10-Chloro-7-(1-ethylpropyl)-2,3,4,5-tetrahydro-1H-[1,3]diazepino[1,2-a]benzimidazol-1-yl]-N,N,4-trimethylpyridin-2-amine]
- inhibition at 1 µM: 91%

Compound: CCC(O)c1ccc(Cl)c2nc3n(c12)CCCN3c1ccc(Cl)cc1Cl (stereo not drawn) [Example 112, 1-[9-Chloro-1-(2,4-dichlorophenyl)-1,2,3,4-tetrahydropyrimido[1,2-a]benzimidazol-6-yl]propan-1-ol]
- inhibition at 1 µM: 95%

Compound: COc1ccc(N2CCCn3c2nc2c(Cl)ccc(C(O)(C4CC4)C4CC4)c23)c(C)n1 [Example 276, [9-Chloro-1-(6-methoxy-2-methylpyridin-3-yl)-1,2,3,4-tetrahydropyrimido[1,2-a]benzimidazol-6-yl](dicyclopropyl)methanol]
- inhibition at 1 µM: 94%

Compound: CCN(CC)c1ccc(F)c2nc3n(c12)CCCN3c1ccc(Cl)cc1Cl [Example 365, 1-(2,4-Dichlorophenyl)-N,N-diethyl-9-fluoro-1,2,3,4-tetrahydropyrimido[1,2-a]benzimidazol-6-amine]
- inhibition at 1 µM: 95%

Compound: COc1ccc(C(O)(C2CC2)C2CC2)c2c1nc1n2CCCN1c1ccc(Cl)cc1Cl [Example 369, Dicyclopropyl[1-(2,4-dichlorophenyl)-9-methoxy-1,2,3,4-tetrahydropyrimido[1,2-a]benzimidazol-6-yl]methanol]
- inhibition at 1 µM: 96%

Compound: Cc1cc(Cl)cc(Cl)c1N1CCn2c1nc1c(Cl)ccc(C(O)(C3CC3)C3CC3)c12 [Example 426, [8-Chloro-1-(2,4-dichloro-6-methylphenyl)-2,3-dihydro-1H-imidazo[1,2-a]benzimidazol-5-yl](dicyclopropyl)methanol]
- inhibition at 1 µM: 98%

Compound: CCC(CCO)c1ccc(Cl)c2nc3n(c12)CCCN3c1ccc(Cl)cc1Cl (stereo not drawn) [Example 450, 3-[9-Chloro-1-(2,4-dichlorophenyl)-1,2,3,4-tetrahydropyrimido[1,2-a]benzimidazol-6-yl]pentan-1-ol]
- inhibition at 1 µM: 98%

Compound: COc1ccc(N2CCCn3c2nc2c(Cl)ccc(C(OCC(F)(F)F)C4CC4)c23)c(Cl)c1 (stereo not drawn) [Example 468, 9-Chloro-1-(2-chloro-4-methoxyphenyl)-6-[cyclopropyl(2,2,2-trifluoroethoxy)methyl]-1,2,3,4-tetrahydropyrimido[1,2-a]benzimidazole]
- IC50 (0.05 nM to 10 μM of compound, read-out: IC50 values (CRF binding inhibition)): < 1000 nM

— patent publication US8901141B2, “Tricyclic compounds having corticotropin-releasing factor antagonistic activity and pharmaceutical compositions containing them” (Takeda Pharmaceutical Company, Limited, priority 2008, dated 2014)
